Assay results from ChEMBL document CHEMBL1201862, “PubChem BioAssay data set” (2004).
Active and inactive are the calls of the source.

How the values were obtained:
[1] = target: T1, Oxysterols receptor LXR-beta (Homo sapiens, UniProt P55055); type: functional, cell-based;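 also: agonist activity at LXR measured by a cell-based luminescence readout across a dose range, run as a counterscreen for daf-12 agonists; HEK293 cells with Gal4-LXR fusion and GAL4-driven luciferase reporter; potency for activation of Gal4-LXR reporter so compounds are agonists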
T1 sequence (P55055 whole entry): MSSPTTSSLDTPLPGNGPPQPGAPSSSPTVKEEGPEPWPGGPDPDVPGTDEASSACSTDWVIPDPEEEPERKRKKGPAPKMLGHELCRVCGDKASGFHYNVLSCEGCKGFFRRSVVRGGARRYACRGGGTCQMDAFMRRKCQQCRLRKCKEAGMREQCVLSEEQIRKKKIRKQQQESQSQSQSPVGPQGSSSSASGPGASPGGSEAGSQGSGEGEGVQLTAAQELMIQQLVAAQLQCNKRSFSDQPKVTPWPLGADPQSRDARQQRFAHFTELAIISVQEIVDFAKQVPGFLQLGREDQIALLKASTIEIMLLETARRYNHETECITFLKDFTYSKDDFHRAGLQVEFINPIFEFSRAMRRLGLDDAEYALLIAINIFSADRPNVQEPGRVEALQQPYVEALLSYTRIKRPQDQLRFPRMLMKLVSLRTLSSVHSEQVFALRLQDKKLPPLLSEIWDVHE

Steroidogenic factor 1 = Steroidogenic factor 1 (Homo sapiens, UniProt Q13285); assay: Counterscreen for inverse agonists of the liver receptor homolog-1 (LRH-1; NR5A2): Luminescence-based cell-based high throughput dose response assay to identify inverse agonists of the Steroidogenic Factor 1 Nuclear Receptor (SF1; NR5A1).; type: functional
[2] = target: Nuclear receptor subfamily 5 group A member 2 (Homo sapiens, UniProt O00482); type: functional, cell-based;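 also: HEK293T cells transfected with LRH-1 and a StAR promoter luciferase reporter; potency for inhibitors that lower LRH-1 driven reporter light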
[3] = nonselective StAR promoter luciferase inhibitors – cell-based, luminescence, luciferase reporter, counter-screen for LRH-1 inverse agonist project, dose response (AID 651969); type: functional
[4] = potency of ADAM10 substrate cleavage blockers – biochemical, QFRET, dose response (AID 743254);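 also: ADAM10 enzyme with the DM2 quenched FRET peptide as substrate; EDANS fluorescence gain as the protease cuts the substrate; inhibitor potency against ADAM10 proteolytic activity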
[5] = target: T2, Disintegrin and metalloproteinase domain-containing protein 17 (Homo sapiens, UniProt P78536); assay: inhibition of ADAM17 substrate cleavage – biochemical, quenched FRET substrate, counter-screen for ADAM10 exosite inhibitor project, dose response (AID 743253)
[6] = target: T2, Disintegrin and metalloproteinase domain-containing protein 17; assay: exosite inhibitors of ADAM17, dose response, biochemical (AID 743260)
[7] = target: T3, Corticotropin-releasing factor receptor 2/Corticotropin-releasing factor-binding protein (Homo sapiens, UniProt P24387+Q13324); assay: Dose Response confirmation of uHTS hits for small molecule antagonists of the CRF-binding protein and CRF-R2 receptor complex.; type: functional; conditions: read-out: IC50_Mean
T3 sequence (Q13324 whole entry): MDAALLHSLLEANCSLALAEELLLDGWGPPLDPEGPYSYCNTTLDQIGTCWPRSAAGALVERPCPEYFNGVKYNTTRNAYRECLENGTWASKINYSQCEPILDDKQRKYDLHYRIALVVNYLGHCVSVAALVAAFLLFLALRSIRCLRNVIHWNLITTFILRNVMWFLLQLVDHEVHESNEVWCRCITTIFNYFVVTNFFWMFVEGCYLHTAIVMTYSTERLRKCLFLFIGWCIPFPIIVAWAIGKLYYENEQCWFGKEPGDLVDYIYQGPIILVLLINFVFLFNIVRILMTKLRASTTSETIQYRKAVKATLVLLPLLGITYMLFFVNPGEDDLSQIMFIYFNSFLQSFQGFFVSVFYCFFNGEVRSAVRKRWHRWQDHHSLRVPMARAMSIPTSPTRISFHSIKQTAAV
T3 sequence (P24387 whole entry): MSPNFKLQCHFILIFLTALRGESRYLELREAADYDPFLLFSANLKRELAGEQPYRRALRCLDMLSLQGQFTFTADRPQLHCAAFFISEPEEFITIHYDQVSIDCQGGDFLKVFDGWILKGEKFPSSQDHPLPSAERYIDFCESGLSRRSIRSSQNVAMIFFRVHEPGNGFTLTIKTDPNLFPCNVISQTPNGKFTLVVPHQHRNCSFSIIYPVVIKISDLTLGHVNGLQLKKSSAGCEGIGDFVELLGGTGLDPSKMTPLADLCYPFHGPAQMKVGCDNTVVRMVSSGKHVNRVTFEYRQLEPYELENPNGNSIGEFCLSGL

[8] = blockers of CRF-binding protein–CRF-R2 complex – cell-based, uHTS hits, 384-well, dose response (AID 651639); type: functional, Homo sapiens; conditions: read-out: IC50_Mean
[9] = target: T3, Corticotropin-releasing factor receptor 2/Corticotropin-releasing factor-binding protein; assay: activators of CRF receptor 2 with binding protein – uHTS hits, confirmation (AID 602473); type: functional; conditions: read-out: EC50_Mean
Streptokinase A = target: T4, Streptokinase A (Streptococcus pyogenes serotype M1, UniProt P10520); assay: viability-normalized secreted streptokinase activity reduction – plasminogen activation absorbance, OD405, dose response (AID 1914); type: functional, Streptococcus pyogenes M1 GAS;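 also: secreted streptokinase activity via plasminogen activation per viability signal from cell pellet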
T4 sequence (P10520 whole entry): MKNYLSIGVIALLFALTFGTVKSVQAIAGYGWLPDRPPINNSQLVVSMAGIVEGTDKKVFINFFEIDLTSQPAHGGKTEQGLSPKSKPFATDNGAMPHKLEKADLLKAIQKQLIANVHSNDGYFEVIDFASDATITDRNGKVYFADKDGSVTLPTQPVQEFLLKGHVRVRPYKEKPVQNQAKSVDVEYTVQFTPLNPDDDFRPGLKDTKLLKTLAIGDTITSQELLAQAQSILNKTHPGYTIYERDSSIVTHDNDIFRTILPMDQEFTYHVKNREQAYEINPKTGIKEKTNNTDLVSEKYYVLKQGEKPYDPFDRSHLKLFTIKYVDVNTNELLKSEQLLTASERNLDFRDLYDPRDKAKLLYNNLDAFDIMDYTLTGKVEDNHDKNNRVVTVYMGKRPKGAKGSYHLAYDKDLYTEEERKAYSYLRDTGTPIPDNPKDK

[10] = Luminescence Cell-Based Dose Response HTS to Identify Inhibitors of 5'UTR Stem-Loop Driven Prion Protein mRNA Translation in H4 Neuroglioblastoma Cells. [Related pubchem assays: 1827 (Project Summary), 1813 (Primary HTS)]; type: functional
[11] = tested on: Streptococcus sp. 'group A'; assay: Streptococcus pyogenes SK(-)GAS viability under kanamycin – luminescence, BacTiterGlo, confirmation, counter-screen for streptokinase expression inhibitor project, dose response (AID 1900); type: functional, organism-based
Streptococcus = assay: GAS UMAA2166 growth inhibition – luminescence, BacTiterGlo, counter-screen for streptokinase expression inhibitor project, dose response (AID 1915); type: functional, organism-based;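 also: potency for reduction of bacterial viability or growth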
[12] = alpha-synuclein stem-loop luciferase translation blockers – H4 neuroglioma cells, luminescence, confirmation (AID 1988); type: functional, cell-based
[13] = luciferase reporter signal suppression in cells – H4 neuroglioma cells, luminescence, dose response (AID 1990); type: functional, cell-based
[14] = target: T5, Nuclear receptor subfamily 0 group B member 1 (Homo sapiens, UniProt P51843); type: functional, cell-based;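 also: HEK293T cells transfected with SF-1 and DAX-1 plus StAR promoter luciferase reporter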
T5 sequence (P51843 whole entry): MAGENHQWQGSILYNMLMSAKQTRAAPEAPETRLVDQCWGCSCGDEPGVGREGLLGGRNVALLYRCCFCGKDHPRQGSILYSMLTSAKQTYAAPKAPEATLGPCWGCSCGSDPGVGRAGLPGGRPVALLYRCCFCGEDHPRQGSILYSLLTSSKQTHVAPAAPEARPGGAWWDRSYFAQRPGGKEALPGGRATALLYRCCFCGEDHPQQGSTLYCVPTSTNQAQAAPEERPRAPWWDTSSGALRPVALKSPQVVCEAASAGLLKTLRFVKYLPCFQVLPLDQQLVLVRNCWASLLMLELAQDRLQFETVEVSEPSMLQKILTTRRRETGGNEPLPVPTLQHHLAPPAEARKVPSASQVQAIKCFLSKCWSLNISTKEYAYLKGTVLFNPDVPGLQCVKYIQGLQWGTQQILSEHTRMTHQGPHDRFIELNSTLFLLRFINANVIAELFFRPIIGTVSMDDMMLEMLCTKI

cells [15] = type: functional, cell-based
Caspase-6 = target: T6, Caspase-6 (Homo sapiens, UniProt P55212); assay: inhibition of CASP6 peptide cleavage – biochemical, VEID-R110 fluorescence, cherry-pick, dose response (AID 720632)
T6 sequence (P55212 whole entry): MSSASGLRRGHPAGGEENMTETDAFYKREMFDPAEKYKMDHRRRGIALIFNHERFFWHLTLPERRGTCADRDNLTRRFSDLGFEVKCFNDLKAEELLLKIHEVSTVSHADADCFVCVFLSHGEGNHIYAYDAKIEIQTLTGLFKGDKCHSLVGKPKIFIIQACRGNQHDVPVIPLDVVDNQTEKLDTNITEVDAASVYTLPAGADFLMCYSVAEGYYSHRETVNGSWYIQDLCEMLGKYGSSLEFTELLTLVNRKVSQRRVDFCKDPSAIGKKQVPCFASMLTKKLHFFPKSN

cells [16] = type: functional, cell-based; remark: listed apart in the source
cells [17] = type: functional, cell-based; remark: listed apart in the source
[18] = inhibition of ADAM10 peptide cleavage – biochemical, FRET peptide substrate, recombinant human ADAM10, selectivity assay for ADAM17 exosite inhibitor project, dose response (AID 743259);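 also: ADAM10 enzyme cleaving a FRET peptide substrate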

Steroidogenic factor 1, sequence (Q13285 whole entry): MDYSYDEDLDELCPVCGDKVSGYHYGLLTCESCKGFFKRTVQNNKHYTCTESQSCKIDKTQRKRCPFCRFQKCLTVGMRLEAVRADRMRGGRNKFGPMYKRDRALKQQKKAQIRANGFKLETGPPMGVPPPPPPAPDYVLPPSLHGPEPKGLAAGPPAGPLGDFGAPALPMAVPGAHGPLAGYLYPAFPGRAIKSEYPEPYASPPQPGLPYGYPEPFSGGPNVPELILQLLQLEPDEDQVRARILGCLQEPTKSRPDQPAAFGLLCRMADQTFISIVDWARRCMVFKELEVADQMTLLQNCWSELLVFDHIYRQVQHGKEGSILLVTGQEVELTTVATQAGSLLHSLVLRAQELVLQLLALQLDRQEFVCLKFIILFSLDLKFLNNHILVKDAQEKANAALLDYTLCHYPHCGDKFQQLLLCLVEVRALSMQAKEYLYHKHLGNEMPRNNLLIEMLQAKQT
T2 sequence (P78536 whole entry, the tested form may be a part): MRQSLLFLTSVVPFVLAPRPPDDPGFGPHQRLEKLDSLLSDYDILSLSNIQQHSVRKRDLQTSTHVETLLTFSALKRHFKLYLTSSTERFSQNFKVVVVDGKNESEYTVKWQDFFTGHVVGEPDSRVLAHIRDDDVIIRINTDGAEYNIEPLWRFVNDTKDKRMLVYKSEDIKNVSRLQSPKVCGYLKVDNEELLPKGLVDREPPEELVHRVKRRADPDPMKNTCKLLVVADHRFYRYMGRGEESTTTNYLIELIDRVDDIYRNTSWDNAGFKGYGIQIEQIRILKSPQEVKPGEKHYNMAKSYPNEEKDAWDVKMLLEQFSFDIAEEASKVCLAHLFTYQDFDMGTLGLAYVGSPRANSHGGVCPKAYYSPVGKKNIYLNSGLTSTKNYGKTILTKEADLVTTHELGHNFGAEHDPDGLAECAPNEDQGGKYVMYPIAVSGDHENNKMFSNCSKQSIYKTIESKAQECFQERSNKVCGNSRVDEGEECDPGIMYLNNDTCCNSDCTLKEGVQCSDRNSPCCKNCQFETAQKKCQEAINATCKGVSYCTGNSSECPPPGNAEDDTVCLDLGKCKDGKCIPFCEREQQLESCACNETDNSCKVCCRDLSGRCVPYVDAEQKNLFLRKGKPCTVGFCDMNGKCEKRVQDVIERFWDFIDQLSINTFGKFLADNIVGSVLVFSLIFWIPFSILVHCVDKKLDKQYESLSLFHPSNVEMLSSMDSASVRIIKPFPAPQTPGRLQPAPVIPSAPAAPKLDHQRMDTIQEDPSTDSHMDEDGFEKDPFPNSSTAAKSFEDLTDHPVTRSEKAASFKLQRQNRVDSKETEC
Nuclear receptor subfamily 5 group A member 2, sequence (O00482 whole entry): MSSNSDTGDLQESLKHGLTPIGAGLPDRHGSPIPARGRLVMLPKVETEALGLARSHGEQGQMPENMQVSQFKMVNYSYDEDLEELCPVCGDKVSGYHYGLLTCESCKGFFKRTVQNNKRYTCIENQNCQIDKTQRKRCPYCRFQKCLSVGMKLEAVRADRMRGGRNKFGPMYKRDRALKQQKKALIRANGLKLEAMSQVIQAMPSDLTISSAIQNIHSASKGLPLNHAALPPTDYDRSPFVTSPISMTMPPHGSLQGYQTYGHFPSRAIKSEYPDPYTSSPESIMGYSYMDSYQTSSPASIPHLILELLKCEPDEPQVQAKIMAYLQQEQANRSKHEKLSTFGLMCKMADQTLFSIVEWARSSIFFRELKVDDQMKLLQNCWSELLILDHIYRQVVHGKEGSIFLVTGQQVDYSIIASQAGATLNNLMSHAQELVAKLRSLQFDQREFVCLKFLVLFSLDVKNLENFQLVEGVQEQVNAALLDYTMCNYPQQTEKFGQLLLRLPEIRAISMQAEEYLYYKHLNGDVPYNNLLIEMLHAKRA

Q: For `c1csc(-c2nnc(-c3ccc(N4CCOCC4)cc3)o2)c1`, which EC50 [1] is on record?
A: > 67.5 µM (inactive)

Q: For `CCOc1ccc(OCCC(=O)OCC(=O)Nc2ccc3c(c2)OCCO3)cc1`, which IC50 (Steroidogenic factor 1) is on record?
A: 12.7 µM (inactive)

Q: What about the IC50 [2] of the same compound?
A: 35.9 µM (inactive)

Q: And the IC50 [3]?
A: 35.9 µM (inactive)

Q: Which results are given for `CC(=O)c1cccc(NC(=O)C(OC(=O)c2ccccc2NS(=O)(=O)c2cccs2)c2ccccc2)c1` (stereo not drawn)?
A: IC50 [4]: > 69.5 µM (inactive); IC50 [5]: > 69.5 µM (inactive); IC50 [6]: > 69.5 µM (inactive)

Q: What does the source list for `Cc1ccc(NC(=O)c2cc3c(s2)CCCC3)cc1S(=O)(=O)Nc1ccccc1Cl`?
A: IC50 [4]: > 69.5 µM (inactive); IC50 [5]: > 69.5 µM (inactive)

Q: With `CCOc1ccc(Cl)cc1S(=O)(=O)n1nnc2ccccc21` as the compound, how does the IC50 [7] read?
A: 3.56 µM (active)

Q: What about the IC50 [8] of the same compound?
A: 2.16 µM (active)

Q: And the EC50 [9]?
A: > 53 µM (inactive)

Q: Which results are given for `Cn1cc(C(=O)c2ccc(Cl)cc2Cl)cc1C(=O)NN=C(N)COc1ccc(Cl)cc1Cl`?
A: EC50 (Streptokinase A): > 150 µM (not active); EC50 [10]: 24.3 µM (active); EC50 [11]: 0.927 µM (active); IC50 [4]: > 69.5 µM (inactive); IC50 [5]: > 69.5 µM (inactive); EC50 (Streptococcus): 43.9 µM (active); EC50 [12]: 9.69 µM (active); EC50 [13]: > 120 µM (not active)

Q: For `Cc1cc(C(=O)CSc2nnc(N)s2)c(C)n1C1CC1`, which IC50 [14] is on record?
A: > 67.6 µM (inactive)

Q: What about the IC50 (cells [15]) of the same compound?
A: > 67.6 µM (inactive)

Q: For `NC(=O)c1c(NC(=O)C2CC=CCC2C(=O)O)sc2c1CCCCC2` (stereo not drawn), which AC50 (Caspase-6) is on record?
A: 5.79 µM (active)

Q: With `CC1CCc2c(sc(NC(=O)C3=COCCO3)c2C(N)=O)C1` (stereo not drawn) as the compound, how does the EC50 [1] read?
A: > 67.5 µM (inactive)

Q: Which results are given for `COc1ccccc1NC(=O)CN1CCN(CC(=O)Nc2ccc3c(c2)OCCO3)CC1`?
A: IC50 (Steroidogenic factor 1): 0.985 µM (active); IC50 [2]: 4.02 µM (active); IC50 [3]: 35.9 µM (inactive)

Q: Which results are given for `COc1ccc(C(=O)Nc2cc(=O)n(C)c(=O)n2C)cc1`?
A: IC50 [7]: < 0.368 µM (active); IC50 [8]: > 20 µM (inactive); EC50 [9]: > 53 µM (inactive)

Q: Which results are given for `CC1CCC2(CC1)NC(=O)N(CC(=O)Nc1ccc3c(c1)OCCCO3)C2=O` (stereo not drawn)?
A: IC50 (Steroidogenic factor 1): 1.02 µM (active); IC50 [2]: 6.2 µM (active); IC50 [3]: 35.9 µM (inactive)

Q: What does the source list for `Cc1ccsc1C(=O)OCC(=O)c1cc(C)n(C)c1C`?
A: IC50 [14]: > 0.278 µM (active); IC50 (cells [15]): > 67.6 µM (inactive)

Q: For `CCN(CC)C1Oc2cc3c(cc2C(c2cccc(OC)c2O)C1C)OCO3` (stereo not drawn), which IC50 [7] is on record?
A: 2.99 µM (active)

Q: And the IC50 [8]?
A: 5.28 µM (active)

Q: And the EC50 [9]?
A: > 53 µM (inactive)

Q: With `O=C(Cc1nnc(O)nc1O)N/N=C/c1ccccc1O` as the compound, how does the EC50 (cells [16]) read?
A: > 29.9 µM (inactive)

Q: And the IC50 (cells [17])?
A: > 29.9 µM (inactive)

Q: With `CNC(=O)C1CC(=O)N=C(N/N=C(\C)c2cccs2)S1` (stereo not drawn) as the compound, how does the IC50 [18] read?
A: > 23.2 µM (inactive)

Q: And the IC50 [6]?
A: > 69.5 µM (inactive)

Q: With `c1ccc(Nc2nc(-c3cccnc3)cs2)nc1` as the compound, how does the EC50 [1] read?
A: > 67.6 µM (inactive)
